These results are taken from patent publication US20240374764A1, “COMBINATION RADIOTHERAPY” (Telix Pharmaceuticals (Innovations) Pty Ltd., priority 2021, published 2024).

One series deals with DNA-PK (Homo sapiens, UniProt P78527). As to conditions: as demonstrated by crystallographic and enzyme kinetics studies; cited from earlier work.
Series [1] relates to SK-RC-52 xenografts. Briefly: In vivo efficacy in SK-RC-52 metastatic renal cell carcinoma xenograft model. On the set-up: species or system Female BALB/c nude mice. As to conditions: number of mice (% of group, n=4) at conclusion of study; 177Lu antibody 6 MBq single i.v. dose day 0; M3814 50 mg/kg oral daily where combined. From the text:
Tumour growth curves were monitored in mice for up to 6 months or ethical limits.

Series [2] has as its system SK-RC-52 xenografts. As to conditions: mouse, in vivo.
Experimental: Female BALB/c nude mice with established SK-RC-52 xenografts (approx. 100 mm^3) were used for this study. Mice were split into one of the following 3 groups: • Vehicle control (oral) n=4; • ^177Lu-anti-CAIX antibody only (DOTA-GmAb, as described herein; 162 μCi/6 MBq) n=4; • 50 mg/kg M3814 DNA-PKi orally dosed and ^177Lu-anti-CAIX antibody (162 μCi/6 MBq) n=4.
Animals were treated as follows: • Day −14: injection of 60 female mice with RK-RC-52 metastatic RCC cells in matrigel; • Day 0: ^177Lu-anti-CAIX antibody i.v. administration, single dose once only • Day 1-7: daily oral dosing of vehicle/M3814 @ 50 mg/kg.
SPECT/MRI imaging was conducted at days 3 and 6 to determine biodistribution.
The conditions of series [3]: previous clinical studies, cited from earlier work.

In the case of `COc1ccc([C@@H](O)c2cc(-c3ncnc4cc(N5CCOCC5)ccc34)c(F)cc2Cl)nn1` [M3814, (S)-[2-chloro-4-fluoro-5-(7-morpholin-4-yl-quinazolin-4-yl)-phenyl]-(6-methoxypyridazin-3-yl)-methanol], the “inhibition of DNA-PK (mode, potency, selectivity)” value at DNA-PK is “potent and selective ATP-competitive inhibitor of DNA-PK”.
For “^177Lu-anti-CAIX antibody: 177Lu-labelled DOTA conjugate of the anti-CAIX antibody GmAb (girentuximab)”, in the series on SK-RC-52 xenografts [1], the “Complete Remission” value is 1 (25%) and the “Progressive Disease” value is listed as 3 (75%). In addition, the “SPECT imaging: delivery of radiation to the tumour” value in the series on SK-RC-52 xenografts [2] is recorded as “specifically delivers cytotoxic radiation to the tumour over a prolonged period”.
Take “^177Lu-girentuximab: chimeric monoclonal antibody girentuximab (cG250, TLX250) specific for CAIX, radiolabelled with lutetium-177 via a DOTA linker”: the MTD in series [3] (single agent) is listed as 2405 MBq/m^2. In addition, the “tolerability of follow on dosing at 75% of the previous dose” value in series [3] is reported as “well tolerated”.
